In patent EP4786468A1, “CRYSTALLINE FORM OF HDAC6 INHIBITOR AND PREPARATION METHOD THEREFOR” (Suzhou Genhouse Bio Co., Ltd., priority 2023, dated 2025):
Converted amounts (≈) assume the structure as drawn.

Key:
[1] = Stability of the crystal form under accelerated conditions (XRPD, HPLC); type: physicochemical; details: for % Area: chemical stability
Experimental: Solid samples separated under different conditions were evaluated for physical stability via XRPD testing for crystalline form and for chemical stability via HPLC testing for purity.
Appropriate amounts of crystal form I samples were taken and subjected to a stability experiment under accelerated conditions of 40 °C/75%RH/open/1 month. Physical stability was evaluated by XRPD testing. Table 14: Stability of crystal form I

[2] = Solubility in water (HPLC); type: physicochemical; details: H2O, 37°C
Experimental: (§1) The vial was stirred and observed in a 37°C water bath. If the sample dissolved completely, more sample was added until undissolved material remained after rotary mixing. The sample vial was sealed and stirred in a 37°C water bath for 24h, then centrifuged. The supernatant was filtered and the solubility was measured by HPLC.

[3] = Dynamic solubility in biorelevant media (HPLC); type: physicochemical; details: 37°C
Experimental: FaSSGF (Fasted State Simulated Gastric Fluid), FeSSGF (Fed State Simulated Gastric Fluid), FaSSIF (Fasted State Simulated Intestinal Fluid), and FeSSIF (Fed State Simulated Intestinal Fluid) are biorelevant media. These media better reflect the impact of the gastrointestinal physiological environment on drug release. Solubility tested in these media is closer to solubility in the human body environment.
as §1, with “HPLC. Table 13: Dynamic Solubility of Crystal Forms in Biorelevant Media” for “HPLC.”

[4] = Phase I metabolic stability in liver microsomes; type: in vitro ADME, cynomolgus monkeys; details: CLM
Experimental: (§2) Evaluation of the Phase I metabolic stability of the test compound in liver microsomes from CD-1 mice (MLM), Sprague-Dawley rats (RLM), beagle dogs (DLM), cynomolgus monkeys (CLM), and humans (HLM).
(§3) The animal and human liver microsomes used in this test system were purchased from Xenotech, Corning, or other qualified suppliers and stored in a freezer below -60°C before use.
(§4) The test and control compounds were incubated with animal and human liver microsomes at 37±1°C for a certain period, with a maximum incubation time of 60 minutes. Samples were taken at specified time points, and the reaction was terminated with acetonitrile or other organic solvents containing an internal standard. After centrifugation, the resulting supernatant was analyzed using liquid chromatography-tandem mass spectrometry (LC-MS/MS).
(§5) 73.21 g of dipotassium hydrogen phosphate trihydrate and 10.78 g of potassium dihydrogen phosphate were dissolved in 4000 mL of ultrapure water. The pH of the solution was adjusted to 7.40±0.10 using 10% phosphoric acid or 1 M potassium hydroxide, with a final concentration of 100 mM. […]
(§6) Sample analysis was performed using liquid chromatography-tandem mass spectrometry (LC-MS/MS), without calibration curves and quality control samples. Semi-quantitative determination was performed using the ratio of the analyte peak area to the internal standard peak area. […]

[5] = Phase I metabolic stability in liver microsomes; type: in vitro ADME, humans; details: HLM
Experimental: as §2, §3, §4, §5, §6

[6] = Phase I metabolic stability in liver microsomes; type: in vitro ADME, beagle dogs; details: DLM
Experimental: as §2, §3, §4, §5, §6

[7] = molecular target: T1, HDAC6 (Homo sapiens, UniProt Q9UBN7); test: HDAC6 enzyme activity assay (fluorogenic substrate Ac-GAK(Ac)-AMC); type: biochemical; details: HDAC6 (Abcam), 20 µM substrate, 37°C 30 min
T1 construct: purchased Abcam
T1 sequence (Q9UBN7 1-1215): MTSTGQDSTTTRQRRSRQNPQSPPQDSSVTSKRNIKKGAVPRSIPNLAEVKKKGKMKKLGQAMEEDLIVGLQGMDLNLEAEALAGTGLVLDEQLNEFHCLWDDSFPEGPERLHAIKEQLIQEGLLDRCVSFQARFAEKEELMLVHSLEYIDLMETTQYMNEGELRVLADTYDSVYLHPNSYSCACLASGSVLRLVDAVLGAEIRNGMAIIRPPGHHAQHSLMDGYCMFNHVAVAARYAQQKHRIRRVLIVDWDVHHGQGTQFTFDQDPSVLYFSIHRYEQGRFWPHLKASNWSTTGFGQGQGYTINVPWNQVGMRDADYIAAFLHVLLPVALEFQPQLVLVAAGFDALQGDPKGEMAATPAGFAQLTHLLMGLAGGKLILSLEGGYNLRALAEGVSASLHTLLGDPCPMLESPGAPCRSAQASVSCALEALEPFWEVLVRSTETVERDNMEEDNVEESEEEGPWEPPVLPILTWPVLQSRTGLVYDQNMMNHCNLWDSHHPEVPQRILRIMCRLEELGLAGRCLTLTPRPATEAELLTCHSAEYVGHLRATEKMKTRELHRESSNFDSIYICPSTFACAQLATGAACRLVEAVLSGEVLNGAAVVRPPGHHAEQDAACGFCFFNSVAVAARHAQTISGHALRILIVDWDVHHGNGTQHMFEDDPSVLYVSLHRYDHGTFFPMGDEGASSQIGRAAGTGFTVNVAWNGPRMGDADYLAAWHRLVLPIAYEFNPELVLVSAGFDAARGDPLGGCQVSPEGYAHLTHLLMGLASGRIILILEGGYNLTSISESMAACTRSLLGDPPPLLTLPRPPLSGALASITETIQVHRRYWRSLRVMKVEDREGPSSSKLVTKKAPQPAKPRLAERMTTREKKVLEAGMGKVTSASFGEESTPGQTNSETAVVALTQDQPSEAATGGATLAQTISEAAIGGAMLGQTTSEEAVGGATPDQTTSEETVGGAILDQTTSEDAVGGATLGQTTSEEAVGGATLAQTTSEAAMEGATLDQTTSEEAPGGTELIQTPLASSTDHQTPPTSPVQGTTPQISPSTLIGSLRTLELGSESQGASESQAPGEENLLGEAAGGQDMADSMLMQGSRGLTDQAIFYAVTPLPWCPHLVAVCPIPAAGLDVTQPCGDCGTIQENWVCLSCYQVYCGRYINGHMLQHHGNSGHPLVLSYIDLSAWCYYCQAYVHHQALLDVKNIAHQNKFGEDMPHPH
Text: (§7) The IC50 was obtained by fitting with GraphPad Prism 7.0 software.

[8] = Phase I metabolic stability in liver microsomes; type: in vitro ADME, CD-1 mice; details: MLM
Experimental: as §2, §3, §4, §5, §6

[9] = Mouse pharmacokinetic test (IV and PO); type: in vivo; details: BALB/c mice
Experimental: This experimental example tested the pharmacokinetic behavior of the compound in BALB/c mice after intravenous (IV) and oral (PO) administration.
The actual body weight of the mice was measured on the day of dosing and the dose volume was calculated. Each group consisted of 3 mice. The compound was tested in two groups: one group received a single intravenous injection, and the other group received a single oral gavage. Whole blood samples were collected via orbital bleeding at specified time points (0.25, 0.5, 1, 2, 4, 8, 24h post-dose). After blood collection, samples were immediately transferred to labeled commercial tubes containing K2-EDTA (0.85-1.15 mg), then centrifuged (3200 x g, 4°C, 10 minutes) to obtain plasma. The plasma was transferred to pre-cooled centrifuge tubes, flash-frozen on dry ice, and stored in an ultra-low temperature freezer at -60°C or lower until LC-MS/MS analysis.
Plasma concentrations were determined using an LC-MS/MS method. […] Relevant pharmacokinetic parameters were calculated using the linear log trapezoidal method. Table 9: Mouse Pharmacokinetic Test Experimental Data

[10] = Mouse brain-to-plasma drug concentration ratio; type: in vivo, mice
Experimental: The actual body weight of the mice was measured on the day of dosing and the dose volume was calculated. Each group consisted of 9 mice. The compound was administered as a single intravenous (IV) injection or a single oral gavage (PO). Whole blood samples were collected via orbital bleeding at specified time points. After blood collection, samples were immediately transferred to labeled commercial tubes containing K2-EDTA (0.85-1.15 mg), then centrifuged (3200 x g, 4°C, 10 minutes) to obtain plasma. The plasma was transferred to pre-cooled centrifuge tubes, flash-frozen on dry ice, and stored in an ultra-low temperature freezer at -60°C or lower until LC-MS/MS analysis. 20 µL of plasma sample or brain tissue homogenate was added to 80 µL of internal standard solution (50 ng/mL propafenone in acetonitrile). The plate was sealed at 165 °C using a plate sealer, vortexed for 10 min on a microplate shaker (maximum speed), and centrifuged at 4000 rpm for 20 min using a low-speed benchtop centrifuge. 10 µL of the supernatant was transferred and mixed with 90 µL of acetonitrile. After vortex mixing, the plate was sealed at 165 °C, vortexed again, and 1 µL of the supernatant was taken for LC-MS/MS analysis. The plasma concentration data of the compound were processed using a non-compartmental model with WinNonlin Version 6.3 (Pharsight, Mountain View, CA) pharmacokinetic software. Relevant pharmacokinetic parameters were calculated using the linear log trapezoidal method.

[11] = molecular target: T2, HDAC1 (Homo sapiens, UniProt Q13547); test: HDAC subtype enzyme activity assay; type: biochemical; details: read-out: HDAC1 Inhibition Rate/%
T2 construct: purchased BPS
Text: as §7

[12] = Phase I metabolic stability in liver microsomes; type: in vitro ADME, Sprague-Dawley rats; details: RLM
Experimental: as §2, §3, §4, §5, §6

[13] = 60 min, buffer instead of NADPH regeneration system
[14] = 60 min with NADPH regeneration system

T2 sequence (Q13547 whole entry, species assumed): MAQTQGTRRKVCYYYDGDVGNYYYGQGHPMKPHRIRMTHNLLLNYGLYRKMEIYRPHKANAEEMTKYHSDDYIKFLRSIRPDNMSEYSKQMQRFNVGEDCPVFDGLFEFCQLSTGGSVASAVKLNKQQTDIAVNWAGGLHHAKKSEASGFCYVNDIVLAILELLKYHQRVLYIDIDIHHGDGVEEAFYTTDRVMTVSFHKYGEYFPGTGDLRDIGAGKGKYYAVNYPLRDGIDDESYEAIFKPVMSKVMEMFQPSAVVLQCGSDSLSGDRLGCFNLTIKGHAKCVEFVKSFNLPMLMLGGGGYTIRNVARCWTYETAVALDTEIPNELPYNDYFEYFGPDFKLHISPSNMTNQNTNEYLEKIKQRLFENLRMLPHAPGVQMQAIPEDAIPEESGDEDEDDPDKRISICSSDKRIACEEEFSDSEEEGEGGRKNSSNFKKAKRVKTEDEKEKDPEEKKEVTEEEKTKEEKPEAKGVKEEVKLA

O=C(N[C@@H]1CCCC[C@H]1N1Cc2ccc(-c3nnc(C(F)F)o3)cc2S1(=O)=O)C(F)F [Crystal Form I]
XRPD characteristic peaks (physical stability) ([1]; 40 °C/75%RH/open/1 month): remained unchanged | % Area ([1]; 40 °C/75%RH/open/1 month, HPLC peak of Compound of formula (I)): 99.51 % Area | % Area ([1]; T0, HPLC peak of Compound of formula (I)): 99.51 % Area | solubility at 24 h [2]: 49.8 µg/mL (≈ 108 µM) | solubility at 1 h ([3]; FaSSGF): 34.5 µg/mL (≈ 74.6 µM) | solubility at 24 h ([3]; FaSSGF): 51.9 µg/mL (≈ 112 µM) | solubility at 24 h ([3]; FaSSIF): 96.2 µg/mL (≈ 208 µM) | solubility at 1 h ([3]; FeSSGF): 45.5 µg/mL (≈ 98.4 µM) | solubility at 24 h ([3]; FeSSGF): 55 µg/mL (≈ 119 µM) | solubility at 24 h ([3]; FeSSIF): 87.5 µg/mL (≈ 189 µM)

O=C(N[C@@H]1CCCC[C@H]1N1Cc2ccc(-c3nnc(C(F)F)o3)cc2S1(=O)=O)C(F)F [I]
Remaining Rate (NCF=60 min) [4, 13]: 101.5% | Remaining Rate (T=60 min) [4, 14]: 88.8% | Remaining Rate (NCF=60 min) [5, 13]: 97.3% | Remaining Rate (T=60 min) [5, 14]: 86.1% | Remaining Rate (NCF=60 min) [6, 13]: 90.9% | Remaining Rate (T=60 min) [6, 14]: 85.8% | IC50 [7]: 5.7 nM | Remaining Rate (NCF=60 min) [8, 13]: 99.8% | Remaining Rate (T=60 min) [8, 14]: 84.8% | CLz ([9]; IV@2mg/kg): 6 mL/min/kg | t1/2z ([9]; IV@2mg/kg): 60.6 min | F ([9]; PO@10mg/kg): 123.92% | t1/2z ([9]; PO@10mg/kg): 97.2 min | F ([9]; PO@30mg/kg): 96.93% | t1/2z ([9]; PO@30mg/kg): 52.2 min | F ([9]; PO@100mg/kg): 95.71% | t1/2z ([9]; PO@100mg/kg): 48.6 min | Brain Drug Concentration ([10]; 2 mg/kg IV, 1 h): 268 ng/mL | Plasma Drug Concentration ([10]; 2 mg/kg IV, 1 h): 1090 ng/mL | Brain Drug Concentration ([10]; 2 mg/kg IV, 4 h): 149 ng/mL | Plasma Drug Concentration ([10]; 2 mg/kg IV, 4 h): 595 ng/mL | Brain Drug Concentration ([10]; 10mg/kg PO, 1 h): 882 ng/mL | Plasma Drug Concentration ([10]; 10mg/kg PO, 1 h): 4993 ng/mL | Brain Drug Concentration ([10]; 10mg/kg PO, 4 h): 435 ng/mL | Plasma Drug Concentration ([10]; 10mg/kg PO, 4 h): 2833 ng/mL | inhibition at 1 µM [11]: -11.9% | inhibition at 10 µM [11]: -3.91% | Remaining Rate (NCF=60 min) [12, 13]: 93.0% | Remaining Rate (T=60 min) [12, 14]: 76.4%
